# Biological target: AMPA receptor
# Assay: displacement of [^3 H]-AMPA from its binding site on rat forebrain membranes
# Settings: 5 nmolar [^3 H]AMPA, 100 mmolar KSCN, 4° C., 1 hr
# Method: A representative compound of this invention was evaluated in a standard pharmacological test procedure to determine its ability to displace [^3 H]-α-amino-3-hydroxy-5-methylisoxazole-4-propionic acid (AMPA) from its binding site on rat forebrain membranes as described in a modified assay by D. E. Murphy, E. W. Snowhill and M. Williams (Characterization of quisqualate recognition sites in rat brain tissue using DL-[^3 H]α-amino-3-hydroxy-5-methylisoxazole-4-propionic acid (AMPA) and a filtration assay, Neurochemical Research, Vol. 12, No.9, 1987, pp. 775-782). Briefly, rats were decapitated and their forebrains (whole brain minus brain stem and cerebella) were homogenized in a volume (ml) of ice cold 0.32M sucrose equivalent to 15 times the forebrain weight (gram). The homogenate was centrifuged at 1,000 g for 10 minutes and the supernatant was recentrifuged at 20,000 g for 20 min. The pellet was resuspended in ice-cold distilled water and centrifuged at 8,000 g for 20 min. The supernatant and buffy coat were centrifuged at 48,000 g for 10 min. The pellet was then resuspended in the original volume of ice-cold 50 mmolar TRIS HCl (pH 7.4) and centrifuged at 48,000 g for 10 min. The pellet was resuspended in 50 mmolar TRIS HCl containing 0.04% Triton X-100 and the homogenate was incubated at 37° C. for 30 min. The homogenate was then centrifuged at 48,000 g for 10 min. […]
structure (smiles),measurement,value
"O=c1[nH]c2cc3no[n+]([O-])c3cc2[nH]c1=O [Example 1, 1-Oxy-5H,8H-2-oxa-1,3,5,8-tetraaza-cyclopenta[b]naphthalene-6,7-dione]",IC50,7.6 µM
